The values that follow come from patent US6825001B2, “DNA molecules and protein displaying improved triazine compound degrading ability” (Regents of the University of Minnesota, priority 1997, dated 2004).

In series [1] the test system is E. coli DH5α (pMD1 or pMD2). Briefly: effect of ammonium chloride on atrazine degradation, E. coli clones. It is filed as cell-based. An excerpt: (§1) Therefore, it was not necessary to use media free of exogenous ammonia in the screening assays.
The subject of series [2] is Pseudomonas species strain ADP. In words: effect of ammonium chloride on atrazine clearing on solid media, Pseudomonas. It is filed as cell-based. To be noted: solid media with 500 ppm atrazine, 2 weeks, 28° C. or 37° C.
Excerpt: as §1

The nature of series [3]: atrazine-degrading activity of AtzA homologs compared with wild type. Conditions: compared with wild-type AtzA or parent homolog. As for the experimental part: Serial dilutions of the transformation reaction were plated onto LB plates containing 50 μg/ml ampicillin, the remainder of the transformation was stored in 25% glycerol and frozen at −80° C.
Environ. Microbiol., 61, 1451-1457 (1995), at a final concentration of 500 μg/ml to produce an opaque suspension of small particles in the clear agar. […] Positive colonies that most rapidly formed the largest clear zones were selected initially for further analysis. The (approximately) 40 best colonies were picked, pooled, grown in the presence of 50 μg/ml ampicillin and plasmid prepared from them.
Enzyme Kinetics. […] The reactions were stopped by boiling the reaction tubes at specific times, the addition of 500 μl acetonitrile and rapid freezing at −80° C. Thawed samples were centrifuged at 14,000 rpm for 10 minutes, the supernatants were filtered through a […] filter, and placed into crimp-seal HPLC vials. HPLC analysis was done as described above.

Series [4] can be described thus: TERBUTHYLAZINE-degrading activity of AtzA homologs. The class given is biochemical. Conditions: compared with wild-type enzyme. As for the experimental part:
TERBUTHYLAZINE was incorporated in solid LB medium at a final concentration of about 400-500 μg/ml to produce an opaque suspension of sample particles in the clear agar. […] HPLC analysis was performed with a Hewlett Packard HP 1090 Liquid Chromatograph system equipped with a photodiode array detector and interfaced to an HP 79994A Chemstation. TERBUTHYLAZINE and its metabolites were resolved by using an analytical C^18 reverse-phase Nova-Pak HPLC column (4 μm-diameter spherical packing, 150 by 3.9 mm; Waters Chromatography, Milford, Mass.) and an acetonitrile (ACN) gradient, in water, at a flow rate of 1.0 ml min^−1. Linear gradients of 0 to 6 min, 10 to 25% ACN; 6 to 21 min, 25 to 65% ACN; 21 to 23 min, 65 to 100% ACN; and 23 to 25 min, 100% ACN were used. Spectral data of the column eluent were acquired between 200 and 400 nm (12-nm bandwidth per channel) at a sampling frequency of 640 ms. Spectra were referenced against a signal of 500 nm.
Sample 1 is a control sample without enzyme. […] Sample 3 employed the T7 homolog (SEQ ID NO:6) and Sample 4 employed the A7 homolog (SEQ ID NO:5). Results were determined by HPLC as described above. FIG. 8(a) provides the percentage of TERBUTHYLAZINE remaining after a 15 minute exposure to homologs A7, A11, and T7. Samples 1-10 refer to the effect of homolog activity in the presence of 50 uM of: Manganese (1); Mangnesium (2), EDTA (3); cobalt (4); zinc (5); iron (6); copper (7); nickel (8); no metal (9); or no eznyme (10). FIG. 8(b) provides the relative amount of hydroxyterbuthylazine as a measure of TERBUTHYLAZINE degradation for homologs A7 (solid bar), A11 (hatched bar), or T7 (open bar) in the presence or absence of additives 1-10 (supra).

Entries after “also recorded” stand apart in the source; their conditions may differ.

In the case of `Cl.N` [ammonium chloride], the “ammonium chloride tolerance relative to wild type” value in series [1] (E. coli clones vs Pseudomonas strain ADP) was 40-80 fold. In series [1] (atzA fragments expressed in E. coli), the “effect of inorganic nitrogen source on atrazine degradation (in words)” value was “unaffected”. For the same molecule, the “ammonium chloride concentration at which atrazine degradation was still observed” value in series [1] (solid media with atrazine) was no more than 48 mM. In series [2], the “ammonium chloride concentration sufficient to inhibit visible clearing” value was in the range of 0.6 to 1.2 mM.

B1: A7: AtzA homolog, gene SEQ ID NO:3, protein SEQ ID NO:5 (protein)
chain: ASMVTLTPLFSFSLLNCTRKASRSVMSASSWLVTCGMTTQLRCRFFDGIISALRRVTHYWRHIMQTLSIQHGTLVTMDQYRRVLGDSWVHVQDGRIVALGVHAESVPPPADRVIDARGKVVLPGFINAHTHVNQILLRGGPSHGRQFYDWLFNVVYPGQKAMRPEDVAVAVRLYCAEAVRSGITTINENADSAIYPGNIEAAMAVYGEVGVRVVYARMFFDRMDGRIQGYVDALKARSPQVELCSIMEGTAVAKDRITALSDQYHGTAGGRISVWPAPATTTAVTVEGMRWAQAFARDRAVMWTLHMAESDHDERIHGMSPAEYMECYGLLDERLQVAHCVYFDRKDVRLLHRHNVKVASQVVSNAYLGSGVAPVPEMVERGMAVGIGTDNGNSNDSVNMIGDMKFMAHIHRAVHRDADVLTPEKILEMATIDGARSLGMDHEIGSIETGKRADLILLDLRHPQTTPHHHLAATIVFQAYGNEVDTVLIDGNVVMENRRLSFLPPERELAFLEEAQSRATAILQRANMVANPAWRSLEMTPLLHPPPLEEIAAILARLGLGGGHDLDGYRIAMNAALPSFARVESLVGEGRLRAPASRRSE
Turning to B1, in series [3], the “atrazine degradation activity (in words)” value is reported as “enhanced atrazine degradation activity”. For the same molecule, the “TERBUTHYLAZINE degradation activity (in words)” value in series [4] is given as “better than the wild-type enzyme; also recorded: enhanced TERBUTHYLAZINE degradation activity”.
